Tests used:
johnsongrass = test: Test C pre-/postemergence herbicide test; assay type: in vivo, Sorghum halepense; details: preemergence; for Plant response rating (0 = no effect, 100 = complete control), Johnsongrass: 125 g ai/ha
Outline: (§1)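 Preemergence: seeds planted and treated with compound in non-phytotoxic solvent with surfactant; postemergence: plants at 2 to 18 cm (1- to 4-leaf stage) sprayed likewise. Kept in greenhouse 12 to 14 days, then visually rated against controls, 0 (no effect) to 100 (complete control).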

lambsquarters = test: Test C pre-/postemergence herbicide test; assay type: in vivo, Chenopodium album; details: preemergence; for Plant response rating (0 = no effect, 100 = complete control), Lambsquarters: 125 g ai/ha
Outline: as §1

woolly cupgrass = test: Test C pre-/postemergence herbicide test; assay type: in vivo, Eriochloa villosa; details: preemergence; for Plant response rating (0 = no effect, 100 = complete control), Cupgrass, Woolly: 125 g ai/ha
Outline: as §1

yellow nutsedge = test: Test C pre-/postemergence herbicide test; assay type: in vivo, Cyperus esculentus; details: preemergence; for Plant response rating (0 = no effect, 100 = complete control), Nutsedge, Yellow: 125 g ai/ha
Outline: as §1

barnyardgrass = test: Test C flooded paddy test; assay type: in vivo, Echinochloa crus-galli; details: for Plant response rating, Barnyardgrass: 500 g ai/ha, visual rating after 12 to 14 days
Outline: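 Postemergence sprays applied to plants 2 to 18 cm tall (1- to 4-leaf stage); paddy species grown to 2-leaf stage under flooding. After 12 to 14 days in greenhouse, visual rating versus untreated controls on 0–100 scale (0 no effect, 100 complete control).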

[1] = 500 g ai/ha, scale 0 to 100 (0 no effect, 100 complete control), visual, 12 to 14 days
[2] = 62 g ai/ha, scale 0 to 100 (0 no effect, 100 complete control)
[3] = 125 g ai/ha, scale 0 to 100 (0 no effect, 100 complete control)
[4] = 250 g ai/ha, scale of 0 to 100, 0 is no effect, 100 is complete control
[5] = scale 0 to 100 (0 no effect, 100 complete control)

Row | Structure (SMILES) | Plant response rating, Johnsongrass (johnsongrass; 62 g ai/ha, scale 0 to 100) | Plant response rating (0 = no effect, 100 = complete control), Johnsongrass (johnsongrass) | Plant response rating, Johnsongrass (johnsongrass; 250 g ai/ha, scale 0-100) | Plant response rating, Johnsongrass (johnsongrass; [1]) | Plant response rating, Lambsquarters (lambsquarters; 62 g ai/ha, scale 0 to 100) | Plant response rating (0 = no effect, 100 = complete control), Lambsquarters (lambsquarters) | Plant response rating, Lambsquarters (lambsquarters; 250 g ai/ha, scale 0-100) | Plant response rating, Lambsquarters (lambsquarters; [1]) | Plant response rating, Cupgrass, Woolly (woolly cupgrass; 62 g ai/ha, scale 0 to 100) | Plant response rating (0 = no effect, 100 = complete control), Cupgrass, Woolly (woolly cupgrass) | Plant response rating, Cupgrass, Woolly (woolly cupgrass; 250 g ai/ha, scale 0-100) | Plant response rating, Cupgrass, Woolly (woolly cupgrass; [1]) | Plant response rating, Nutsedge, Yellow (yellow nutsedge; 62 g ai/ha, scale 0 to 100) | Plant response rating (0 = no effect, 100 = complete control), Nutsedge, Yellow (yellow nutsedge) | Plant response rating, Nutsedge, Yellow (yellow nutsedge; 250 g ai/ha, scale 0-100) | Plant response rating, Nutsedge, Yellow (yellow nutsedge; [1]) | Barnyardgrass plant response rating (barnyardgrass; [2]) | Barnyardgrass plant response rating (barnyardgrass; [3]) | Barnyardgrass plant response rating (barnyardgrass; [4]) | Plant response rating, Barnyardgrass (barnyardgrass; [5])
1 | CCC1=NN(C(C)(C)C)CC1C(=O)Nc1cc(C(=O)N(C)CC)ccc1F (racemic) [Compound 342] | 55 | 100 | 100 | 100 | 70 | 90 | 100 | 100 | 10 | 40 | 50 | 70 | 0 | 0 | 40 | 60 | 20 | 20 | 50 | 60
2 | CCNC(=O)c1ccc(F)c(N(C(C)=O)C(=O)c2cc(C(C)(C)C)nn2CC)c1 [Compound 399] | 95 | 100 | 100 | 100 | 100 | 100 | 100 | 100 | 45 | 65 | 80 | 95 | 45 | 75 |  | 95 | 50 | 65 | 85 | 90
3 | CCc1nn(C(C)(C)CC)nc1C(=O)Nc1cccc(C(=O)N(C)C)c1 [Compound 372] | 80 | 80 | 90 | 90 | 100 | 100 | 100 | 100 | 50 | 60 | 70 | 100 | 5 | 30 | 40 | 85 | 65 | 70 | 75 | 80
4 | CCNC(=O)c1cccc(NC(=O)c2nn(C(C)(C)CC)nc2CC)c1 [Compound 376] | 60 | 80 | 100 | 100 | 100 | 100 | 100 | 100 | 5 | 30 | 75 | 85 | 5 | 30 | 40 | 60 | 45 | 65 | 70 | 75

Source: US20060069132A1, “Azolecarboxamide herbicides” (priority 2004, published 2006)
